# What was measured:
# [1] = system: D. melanogaster MUTANT strain (dhr96_hairpin / GAL4-arm, reduced dhr96 expression); experiment: Topical application bioassay on adult females, dhr96 knockdown mutant strain; assay type: in vivo, Drosophila melanogaster; settings: 50 ppm topical application, at 5 hours, 3 independent experiments
# Procedure: (§1) For testing on adults by topical application of compounds, a method has been adapted from Dapkus (Drosophila Information Newsletter, Volume 1, January 1991; http://jfly.iam.u-tokyo.ac.jp/html/din/DIN_Vol_01—9101.txt). 0-3 day old adult D. melanogaster females are anaesthetised using CO2, and 0.4 uL of compound dissolved in acetone is applied to the abdomens of these females using a Hamilton pipette. After compound application, the flies are cultured under normal conditions for the required time intervals, and either visually assessed (as in Example 6.2) or harvested for chemical analysis (Example 7). Ideally the experiment is repeated on 3 separate ocassions
# (§2) The effects of the compounds on the whole insects (larvae and adults) are monitored by visual assessment, daily or at a frequency as required. In one type of assessment, the mortality of the insects over time is scored. For example, if the adult test is used, the insects are monitored at time points that have been determined previously to be suitable for the experiment. The number of dead flies at each time point is scored.
# (§3) Bioassays are carried out as described above. In one example, the insecticide Malathion was applied to 20 females at a dose of 50 ppm per time point to be assessed, according to the topical application method described above. […]
# [2] = system: D. melanogaster control strains (CONTROL 1, CONTROL 2); experiment: Topical application bioassay on adult females, control strains; assay type: in vivo, Drosophila melanogaster; settings: 50 ppm topical application, by 5 hours, 3 independent experiments
# Procedure: as §1, §2, §3
smiles,measurement,setting,value
CCOC(=O)CC(SP(=S)(OC)OC)C(=O)OCC (centres unmarked) [Malathion],mortality,[1],no or significantly reduced mortality
same,percentage mortality,[2],≥ 95%
